Laboratory results as given in patent publication US9181265B2, “Substituted 2,3-dihydro-1H-benzo[a]pyrano[2,3-c]phenazines as anti-angiogenic and anti-cancer agents” (UNIVERSITE CATHOLIQUE DE LOUVAIN, priority 2010, dated 2015).
Like-named read-outs stand apart in the source and are kept apart here.

How the values were obtained:
[1] = system: Human umbilical vein endothelial cells (HUVEC); assay: MTT test of overall cell growth, endothelial cells, normoxic or hypoxic conditions; type: cell-based; details: for Selectivity: if u.t.d., ratio of activity at 100 μM
Method: (§1) MTT tests were performed in order to rapidly, i.e. within 3 days, measure the effect of compounds of this invention on the overall cell growth. The test measured the number of metabolically active living cells that were able to transform the yellow product 3-(4,5-dimethylthiazol-2-yl)-2,5-diphenyl tetrazolium bromide (herein referred as MTT) into the blue product formazan dye by mitochondrial reduction. The amount of formazan obtained at the end of the experiment, measured by means of a spectrophotometer (Plate Reader Victor X4 Microplate reader (Perkin Elmer), is directly proportional to the number of living cells. Optical density determination thus enabled a quantitative measurement of the effect of the investigated compounds under control conditions (normoxia) as compared to the hypoxic conditions (0.1 or 1% O2) and/or untreated conditions.
(§2) Human umbilical vein endothelial cells (HUVEC) and six human cancer cell lines were used in the MTT tests. These cancer cell lines cover five histological cancer types including cervix (SiHa), breast (MCF-7 and MDA-MB231), prostate (PC3), glioma (U373), and colorectal (LoVo) cancers.
(§3) To perform the assay, cells were allowed to grow in 96-well microplates with a flat bottom following addition of an amount of 100 μl of cell suspension per well with 4,500 cells/well. Each cell line was seeded in its appropriate culture medium. HUVEC were cultured in a specific endothelial cell growth medium (ECACC, Sigma); SiHa cells in Glutamax-containing DMEM with 4.5 g/1 glucose (Invitrogen) supplemented with 10% Foetal Bovine Serum (PAA) and 1% penicillin+streptomycin mix (Invitrogen); MCF-7, MDA-MB-231, PC3, and LoVo cells in Glutamax-containing RPMI supplemented with 10% Foetal Bovine Serum (PAA) and 1% penicillin+streptomycin mix (Invitrogen) and U373 cells in Glutamax-containing DMEM (Invitrogen) with 5% Foetal Bovine Serum (PAA) and 1% penicillin+streptomycin mix (Invitrogen).
(§4) The detailed experimental procedure was the following: after a 24-hour period of incubation at 37° C., the culture medium was replaced by 100 μl of fresh medium in which the tested compound was previously dissolved, at the following concentrations: 10^−8 M, 5.10^−8, 10^−7, 5.10^−7, 10^−6, 5.10^−6, 10^−5, 5.10^−5 and 10^−[…]. Each experiment was performed in sestuplicates (6 times).
(§5) Cells were then incubated under normoxia in a Binder incubator (the O2 level corresponding to the concentration in the ambient air), or in a Ruskin hypoxia workstation under either 0.1% O2 (v/v) or 1% O2 (v/v). Under both conditions, the atmosphere was humidified and the CO2 concentration was fixed at 5 vol. %.
(§6) After 72 hours of incubation at 37° C. under normoxic or hypoxic conditions, with or without the compound to be tested, the medium was replaced by 100 μl of HBSS (without phenol red) containing MTT at a concentration of 0.5 or 1 mg/ml. The micro-wells were subsequently incubated during 3 hours and a half at 37° C. and centrifuged at 1300 rpm during 10 minutes. Medium was removed and formazan crystals formed were dissolved in 100 μl DMSO. The micro-wells were shaken for 5 minutes and read on a spectrophotometer at wavelengths of 570 nm (maximal formazan absorbance).
(§7) For each experimental condition, the mean optical density was calculated, allowing the determination of the percentage of living cells in comparison to the control.

MDA-MB-231 = assay: MTT test of overall cell growth, MDA-MB-231 breast cancer cells, normoxia or hypoxia; type: cell-based, human; details: for Selectivity: MDA-MB-231, IC50 (normoxia)/IC50 (hypoxia 1% O2), if u.t.d., ratio of activity at 100 μM
Method: as §1, §2, §3, §4, §5, §6, §7

MCF-7 = assay: MTT test of overall cell growth, MCF-7 breast cancer cells, normoxia or hypoxia; type: cell-based, human; details: for Selectivity: MCF-7, IC50 (normoxia)/IC50 (hypoxia 1% O2), if u.t.d., ratio of activity at 100 μM
Method: as §1, §2, §3, §4, §5, §6, §7

PC3 = assay: MTT test of overall cell growth, PC3 prostate cancer cells, normoxia or hypoxia; type: cell-based, human; details: for Selectivity: PC3, IC50 (normoxia)/IC50 (hypoxia 1% O2), if u.t.d., ratio of activity at 100 μM
Method: as §1, §2, §3, §4, §5, §6, §7

LoVo = assay: MTT test of overall cell growth, LoVo colorectal cancer cells, normoxia or hypoxia; type: cell-based, human; details: for Selectivity: IC50 (normoxia)/IC50 (hypoxia 1% O2), if u.t.d., ratio of activity at 100 μM
Method: as §1, §2, §3, §4, §5, §6, §7

siHa = assay: MTT test of overall cell growth, SiHa cervix cancer cells, normoxia or hypoxia; type: cell-based, human; details: for Selectivity: IC50 (normoxia)/IC50 (hypoxia 1% O2), if u.t.d., ratio of activity at 100 μM
Method: as §1, §2, §3, §4, §5, §6, §7

U373 = assay: MTT test of overall cell growth, U373 glioma cells, normoxia or hypoxia; type: cell-based, human; details: for Selectivity: U373, IC50 (normoxia)/IC50 (hypoxia 1% O2), if u.t.d., ratio of activity at 100 μM
Method: as §1, §2, §3, §4, §5, §6, §7

[2] = IC50 (normoxia)/IC50 (hypoxia 0.1%)
[3] = IC50 (normoxia)/IC50 (hypoxia 1%)
[4] = hypoxia 1% O2, 72 h, read-out: IC50 (μM) Hypoxia 1% O2
[5] = normoxia, 72 h, read-out: IC50 (μM) Normoxia
[6] = Homo sapiens, 72 h, hypoxia 0.1% O2, 72 h, read-out: IC50 (μM) Hypoxia 0.1%
[7] = Homo sapiens, 72 h, hypoxia 1% O2, 72 h, read-out: IC50 (μM) Hypoxia 1%
[8] = Homo sapiens, 72 h, normoxia, 72 h, series compared with hypoxia 0.1%, read-out: IC50 (μM) Normoxia
[9] = Homo sapiens, 72 h, normoxia, 72 h, series compared with hypoxia 1%, read-out: IC50 (μM) Normoxia
[10] = Homo sapiens, MDA-MB-231, hypoxia 1% O2, 72 h, read-out: IC50 (μM) Hypoxia 1% O2
[11] = Homo sapiens, MDA-MB-231, normoxia, 72 h, read-out: IC50 (μM) Normoxia
[12] = Homo sapiens, MCF7, MCF-7, hypoxia 1% O2, 72 h, read-out: IC50 (μM) Hypoxia 1% O2
[13] = Homo sapiens, MCF7, MCF-7, normoxia, 72 h, read-out: IC50 (μM) Normoxia
[14] = Homo sapiens, PC-3, PC3, hypoxia 1% O2, 72 h, read-out: IC50 (μM) Hypoxia 1% O2
[15] = Homo sapiens, PC-3, PC3, normoxia, 72 h, read-out: IC50 (μM) Normoxia
[16] = Homo sapiens, hypoxia 1% O2, 72 h, read-out: IC50 (μM) Hypoxia 1% O2
[17] = Homo sapiens, normoxia, 72 h, read-out: IC50 (μM) Normoxia
[18] = Homo sapiens, U373 MG, U373, hypoxia 1% O2, 72 h, read-out: IC50 (μM) Hypoxia 1% O2
[19] = Homo sapiens, U373 MG, U373, normoxia, 72 h, read-out: IC50 (μM) Normoxia

IC50 (MDA-MB-231; [10]) [µM] | IC50 (MDA-MB-231; [11]) [µM] | IC50 (MCF-7; [12]) [µM] | IC50 (MCF-7; [13]) [µM] | IC50 (PC3; [14]) [µM] | IC50 (PC3; [15]) [µM] | IC50 (LoVo; [16]) [µM] | IC50 (LoVo; [17]) [µM] | SMILES | Selectivity [1, 2] | Selectivity [1, 3] | Selectivity (MDA-MB-231) | Selectivity (MCF-7) | Selectivity (PC3) | Selectivity (LoVo) | Selectivity (siHa) | Selectivity (U373) | IC50 [1, 6] [µM] | IC50 [1, 7] [µM] | IC50 [1, 8] [µM] | IC50 [1, 9] [µM] | further results
 |  |  |  |  |  |  |  | CC1CCC2C(C1)c1c(c3ccccc3c3nc4ccc(C(=O)NC(CO)Cc5ccccc5)cc4nc13)OC2(C)C (mixture of isomers) [Compound 17′] | 230 | 16 | 5.40 | 1.37 | 1.31 | 1.64 | 9.50 | 8.67 |  |  |  |  | IC50 ([1]; hypoxia 0.1% O2, 72 h, read-out: IC50 (μM) Hypoxia 0.1%): 0.07 µM; IC50 ([1]; hypoxia 1% O2, 72 h, read-out: IC50 (μM) Hypoxia 1%): 0.36 µM; IC50 ([1]; normoxia, 72 h, series compared with hypoxia 0.1%, read-out: IC50 (μM) Normoxia): 17 µM; IC50 ([1]; normoxia, 72 h, series compared with hypoxia 1%, read-out: IC50 (μM) Normoxia): 5.72 µM; IC50 (MDA-MB-231; MDA-MB-231, hypoxia 1% O2, 72 h, read-out: IC50 (μM) Hypoxia 1% O2): 11.1 µM; IC50 (MDA-MB-231; MDA-MB-231, normoxia, 72 h, read-out: IC50 (μM) Normoxia): 59.9 µM; IC50 (MCF-7; MCF-7, hypoxia 1% O2, 72 h, read-out: IC50 (μM) Hypoxia 1% O2): 12.5 µM; IC50 (MCF-7; MCF-7, normoxia, 72 h, read-out: IC50 (μM) Normoxia): 17.2 µM; IC50 (PC3; PC3, hypoxia 1% O2, 72 h, read-out: IC50 (μM) Hypoxia 1% O2): 11.6 µM; IC50 (PC3; PC3, normoxia, 72 h, read-out: IC50 (μM) Normoxia): 15.2 µM; IC50 (LoVo; [4]): 11.4 µM; IC50 (LoVo; [5]): 18.8 µM; IC50 (siHa; [4]): 10.7 µM; IC50 (siHa; [5]): 102 µM; IC50 (U373; U373, hypoxia 1% O2, 72 h, read-out: IC50 (μM) Hypoxia 1% O2): 1.34 µM; IC50 (U373; U373, normoxia, 72 h, read-out: IC50 (μM) Normoxia): 11.6 µM
1.27 | 30.3 | 1.45 | 8.07 | 1.31 | 14.7 | 1.31 | 9.69 | C[C@H]1CC[C@H]2[C@H](C1)c1c(c3ccccc3c3nc4cc(C(=O)N5CCOCC5)ccc4nc13)OC2(C)C (racemic) [Compound 12] | 58 | 14 | 23.81 | 5.56 | 11.23 | 7.38 | 17.50 | 75.00 | 0.14 | 0.4 | 8.27 | 5.65 | IC50 (siHa; [16]): 1.13 µM; IC50 (siHa; [17]): 19.8 µM; IC50 (U373; [18]): 0.14 µM; IC50 (U373; [19]): 10.6 µM
1.31 | 44.4 | 1.45 | 11.3 | 1.41 | 15.3 | 1.21 | 10.6 | C[C@H]1CC[C@H]2[C@H](C1)c1c(c3ccccc3c3nc4ccc(C(=O)N5CCOCC5)cc4nc13)OC2(C)C (racemic) [Compound 12′] | 105 | 29 | 33.85 | 7.78 | 10.86 | 8.75 | 62.07 | 15.00 | 0.04 | 0.14 | 4.24 | 4.14 | IC50 (siHa; [16]): 1.17 µM; IC50 (siHa; [17]): 72.6 µM; IC50 (U373; [18]): 0.61 µM; IC50 (U373; [19]): 9.08 µM
